Test results: patent publication US7960130B2, “Method for activation of transient receptor potential cation channel, subfamily A, member 1 using acetaldehyde” (Korea University Industry and Academy Cooperation Foundation, priority 2008, dated 2011)
“Also recorded” adds a separate entry of the source.

Columns and labels:
[1] = test system: trigeminal neurons; experiment: Fluo-3 calcium imaging of cultured mouse trigeminal neurons; conditions: 1 μM PGE2 + modulator: SC-51089 10 μM, U73122 3 μM, U73343 3 μM, BIM 1 μM, chelerythrine 1 μM, H-89 10 μM
[2] = test system: ICR mice; experiment: Acute hindpaw licking/flicking behavioral analysis; conditions: for suppression of cinnamaldehyde-evoked licking/flicking behaviors: 10 mM cinnamaldehyde, 100 μM or 1 mM GdCl3, intradermal; for suppression of cinnamaldehyde-evoked licking/flicking behaviors / suppression of acetaldehyde-evoked licking/flicking behaviors: 10 mM camphor; for suppression of acetaldehyde-evoked licking/flicking behaviors: 100 mM acetaldehyde, 1 mM ruthenium red, 100 μM or 1 mM GdCl3 injected 5 min prior
Experimental: This analysis was performed in accordance with protocols approved by the University Committee on Laboratory Animals. Mice were acclimated for 1 h to the test environment prior to experiments. Drugs dissolved in vehicle (PBS containing 0.5% Tween 80) were injected into mice right hindpaws intradermally.

[3] = test system: trigeminal neurons; experiment: Whole-cell voltage-clamp recording of cultured trigeminal neurons; format: cell-based, mouse; conditions: 1 mM acetaldehyde, co-application of 20 μM GdCl3 and 2 mM camphor
Experimental: Trigeminal ganglia were dissected out of decapitated adult ICR mice in cold PBS and treated with 1.5 mg/Ml of collagenase/dispase (Roche Diagnostics, USA) at 37 °C for 45 min, and then treated with 0.25% trypsin (Invitrogen, USA) for 15 min. The trigeminal neurons prepared thereby were then plated onto poly-L-lysine-coated coverslips in DMEM/F12 containing 10% FBS, 1% penicillin/streptomycin and 5 ng/Ml of 2.5S NGF (Invitrogen, USA), nerve growth factor (Invitrogen), followed by culture in a CO2 incubator for 48-72 hours.
Particularly, the extracellular solution (140 mM NaCl, 5 mM KCl, 2 mM CaCl2, 1 mM MgCl2, 10 mM HEPES; titrated to pH 7.4 with NaOH) and the pipette solution (140 mM CsCl, 5 mM EGTA, 10 mM HEPES, 2.0 mM MgATP, 0.2 mM NaGTP; titrated to pH 7.2 with CsOH) were used. The potential was holded at −60 mV for 250 ms, voltage-ramp pulsed from −80 mV to +80 mV for […] and returned to −60 mV for 250 ms, which was repeated without intersweep. This experiment was repeated 5 times.
The trigeminal neurons prepared by the same manner as described in Example 2 were delayed-treated with 1 mM acetaldehyde, followed by treatment of 20 μM GdCl3 (a TRPA1 blocker gadolinium; Sigma-Aldrich, USA) and 2 mM camphor. Then, whole-cell voltage-clamp recording was performed by the same manner as described in Example <5-2>.

[4] = target: T1, hTRPA1 (Homo sapiens, UniProt O75762); experiment: Fluo-3 calcium imaging of hTRPA1-transfected HEK293T cells; format: cell-based; conditions: for suppression of acetaldehyde-evoked intracellular calcium influx (hTRPA1): 1 mM acetaldehyde + 2 mM camphor or 10 μM ruthenium red, n=12; for elevation of intracellular calcium levels in hTRPA1-expressing cells: 1 mM acetaldehyde, 300 μM cinnamaldehyde, 10 mM acetic acid, 1% methanol, 1% ethanol
T1 construct: expressed in transfected cells; host or cells: HEK293T (ATCC CRL-11268), pcDNA3.1
T1 sequence (O75762 whole entry): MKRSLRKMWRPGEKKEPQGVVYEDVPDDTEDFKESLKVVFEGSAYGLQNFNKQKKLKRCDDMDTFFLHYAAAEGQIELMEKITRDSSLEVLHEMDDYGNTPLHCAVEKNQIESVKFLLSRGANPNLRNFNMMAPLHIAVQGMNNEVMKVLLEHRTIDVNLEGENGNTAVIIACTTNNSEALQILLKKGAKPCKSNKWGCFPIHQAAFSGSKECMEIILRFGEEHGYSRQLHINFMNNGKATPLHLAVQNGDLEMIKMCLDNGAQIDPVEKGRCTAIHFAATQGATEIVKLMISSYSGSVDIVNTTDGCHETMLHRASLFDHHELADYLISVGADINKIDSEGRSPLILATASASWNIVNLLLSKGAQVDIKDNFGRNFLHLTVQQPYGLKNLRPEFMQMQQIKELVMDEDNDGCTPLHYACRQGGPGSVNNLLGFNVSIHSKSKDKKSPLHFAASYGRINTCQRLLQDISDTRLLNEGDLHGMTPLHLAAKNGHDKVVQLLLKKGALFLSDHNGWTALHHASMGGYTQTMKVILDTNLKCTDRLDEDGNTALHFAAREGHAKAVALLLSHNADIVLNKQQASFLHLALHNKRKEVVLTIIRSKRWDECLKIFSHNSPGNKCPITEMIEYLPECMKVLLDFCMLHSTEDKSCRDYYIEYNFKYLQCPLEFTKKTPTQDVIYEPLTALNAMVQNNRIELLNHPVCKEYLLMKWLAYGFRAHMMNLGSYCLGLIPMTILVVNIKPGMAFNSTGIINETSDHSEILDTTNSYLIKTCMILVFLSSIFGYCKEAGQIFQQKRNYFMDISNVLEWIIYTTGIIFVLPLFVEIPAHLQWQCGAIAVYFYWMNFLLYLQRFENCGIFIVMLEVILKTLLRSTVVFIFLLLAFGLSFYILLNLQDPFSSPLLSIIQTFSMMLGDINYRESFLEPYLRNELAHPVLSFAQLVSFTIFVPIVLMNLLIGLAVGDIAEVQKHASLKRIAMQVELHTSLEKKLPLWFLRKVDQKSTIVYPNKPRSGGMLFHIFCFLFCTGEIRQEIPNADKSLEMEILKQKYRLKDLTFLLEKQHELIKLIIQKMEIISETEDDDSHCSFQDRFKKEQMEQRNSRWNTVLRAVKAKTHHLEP
Experimental: (§1) Particularly, the HEK293T cell line was transiently transfected with individual TRP channel plasmid (pcDNA3.1 containing polynucleotide encoding hTRPA1, rTRPV2, rTRPV1 or mTRPV4; pcDNA5/FRT containing polynucleotide encoding mTRPA1, hTRPV3 or mTRPM8) 3 μg per 35-mm dish and 600 ng/well of pcDNA3 (Invitrogen Corp., USA; containing green fluorescent protein (GFP) cDNA) using Fugene6 (Roche Diagnostics, USA) according to manufacturer's instruction. The transformed cells were cultured in DMEM/F12 containing 10% FBS and 1% penicillin/streptomycin in a CO2 incubator for 24 hours. The cells were replated onto poly-L-lysine-coated glass coverslips, followed by further culture for 10-24 hours.
(§2) Stock solutions were made using water or ethanol, and were diluted with test solutions before use.
(§3) Calcium imaging was performed with a confocal microscope (LSM5 Pascal, Carl Zeiss, Germany), and time-lapse images (488 nm excitation/514 nm emission) were collected every 3 seconds using Carl Zeiss ratio tool software (Carl Zeiss, Germany).
as §2

[5] = target: T2, mTRPA1 (Mus musculus, UniProt Q8BLA8); experiment: Fluo-3 calcium imaging of mTRPA1-transfected HEK293T cells; format: cell-based; conditions: 1 mM acetaldehyde + 2 mM camphor or 10 μM ruthenium red, n=21
T2 construct: expressed in transfected cells; host or cells: HEK293T (ATCC CRL-11268), pcDNA5/FRT
T2 sequence (Q8BLA8 whole entry): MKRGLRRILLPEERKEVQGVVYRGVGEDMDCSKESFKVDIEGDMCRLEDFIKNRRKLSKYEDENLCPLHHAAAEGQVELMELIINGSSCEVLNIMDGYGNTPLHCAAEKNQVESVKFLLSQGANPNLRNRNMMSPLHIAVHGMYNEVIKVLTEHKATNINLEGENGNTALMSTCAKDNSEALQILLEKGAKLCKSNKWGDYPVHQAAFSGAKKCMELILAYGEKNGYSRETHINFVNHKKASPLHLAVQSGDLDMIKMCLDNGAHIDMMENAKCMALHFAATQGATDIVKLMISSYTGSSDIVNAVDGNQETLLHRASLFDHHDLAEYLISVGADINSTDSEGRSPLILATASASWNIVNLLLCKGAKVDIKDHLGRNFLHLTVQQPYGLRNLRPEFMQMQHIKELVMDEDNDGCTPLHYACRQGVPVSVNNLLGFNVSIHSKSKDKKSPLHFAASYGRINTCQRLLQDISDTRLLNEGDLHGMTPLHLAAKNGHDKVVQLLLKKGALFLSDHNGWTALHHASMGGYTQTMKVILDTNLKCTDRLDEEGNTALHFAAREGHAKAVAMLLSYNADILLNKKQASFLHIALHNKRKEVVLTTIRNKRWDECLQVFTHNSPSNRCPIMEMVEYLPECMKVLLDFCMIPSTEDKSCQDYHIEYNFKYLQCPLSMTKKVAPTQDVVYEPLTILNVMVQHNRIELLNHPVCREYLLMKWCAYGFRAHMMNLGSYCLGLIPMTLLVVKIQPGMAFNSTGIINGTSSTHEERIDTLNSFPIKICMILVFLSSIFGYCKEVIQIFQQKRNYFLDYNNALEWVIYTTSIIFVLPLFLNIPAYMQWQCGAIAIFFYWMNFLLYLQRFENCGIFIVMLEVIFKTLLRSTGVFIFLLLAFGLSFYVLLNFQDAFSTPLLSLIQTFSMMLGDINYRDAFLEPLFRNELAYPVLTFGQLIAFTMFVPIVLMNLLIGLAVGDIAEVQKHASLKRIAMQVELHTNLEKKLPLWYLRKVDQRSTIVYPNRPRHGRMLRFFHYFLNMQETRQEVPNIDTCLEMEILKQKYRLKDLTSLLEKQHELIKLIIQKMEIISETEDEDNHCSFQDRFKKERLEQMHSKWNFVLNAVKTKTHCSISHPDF
Experimental: as §1, §3, §2

[6] = test system: TRPA1; experiment: Whole-cell voltage-clamp recording of TRPA1 transfected cell line; format: cell-based
Experimental: as §1, §2
This experiment was repeated 5 times.

COc1ccc2c(c1)CC[C@@H]1[C@@H]2CC[C@]2(C)[C@@H](NCCCCCCN3C(=O)C=CC3=O)CC[C@@H]12 [U73122]
suppression of the PGE2-induced potentiation of acetaldehyde responses [1]: significantly suppressed

[Cl][Gd]([Cl])[Cl] [GdCl3]
suppression of nociceptive behaviors at a micromolar dose ([2]; 100 μM GdCl3, intradermal): significantly suppress
suppression of cinnamaldehyde-evoked licking/flicking behaviors [2]: suppressed
suppression of acetaldehyde-evoked licking/flicking behaviors ([2]; intradermal): suppressed
inhibition of acetaldehyde-evoked current in trigeminal neurons [3]: inhibited

N.N.N.N.N.N.N.N.N.N.N.N.N.N.[Cl-].[Cl-].[Cl-].[Cl-].[Cl-].[Cl-].[O-2].[O-2].[Ru+3].[Ru+3].[Ru+4] [ruthenium red]
suppression of acetaldehyde-evoked intracellular calcium influx (hTRPA1) [4]: so did; also recorded: suppressed
suppression of acetaldehyde-evoked licking/flicking behaviors ([2]; intradermal): suppressed
suppression of acetaldehyde-evoked intracellular calcium influx (mTRPA1) [5]: suppressed

CO [methanol]
elevation of intracellular calcium levels in hTRPA1-expressing cells [4]: failed to elevate intracellular calcium levels

bisindolmaleimide [BIM]
suppression of the PGE2-induced potentiation of acetaldehyde responses [1]: significantly suppressed

O=CC=Cc1ccccc1 [cinnamaldehyde]
elevation of intracellular calcium levels in hTRPA1-expressing cells [4]: TRPA1-specific responses; also recorded: responded
acute hindpaw licking/flicking behavior elicited ([2]; intradermal into hindpaw, 10 μl, 100 mM acetaldehyde or 10 mM cinnamaldehyde, 10 min, n=5): time spent in licking/flicking behaviors increased
whole-cell current response in TRPA1 expressing cells ([6]; 1 mM acetaldehyde, 300 μM cinnamaldehyde, voltage ramp -80 to +80 mV, n=5): responsive

O=S(=O)(NCCNC/C=C/c1ccc(Br)cc1)c1cccc2cnccc12 [H-89]
suppression of the PGE2-induced potentiation of acetaldehyde responses [1]: did not suppress

CC12CCC(CC1=O)C2(C)C (stereo not drawn) [camphor]
suppression of acetaldehyde-evoked intracellular calcium influx (hTRPA1) [4]: completely suppressed
suppression of cinnamaldehyde-evoked licking/flicking behaviors [2]: suppressed
duration of suppressive effect on PGE2-potentiated sensitization ([2]; 100 mM acetaldehyde + 1 μM PGE2 + 10 mM camphor): 8 min
suppression of the effect of co-injection of acetaldehyde and PGE2 ([2]; 100 mM acetaldehyde + 1 μM PGE2 + 10 mM camphor, intradermal): suppressed
suppression of acetaldehyde-evoked licking/flicking behaviors ([2]; intradermal): suppressed
suppression of acetaldehyde-evoked intracellular calcium influx (mTRPA1) [5]: suppressed
inhibition of acetaldehyde-evoked current in TRPA1 expressing cells ([6]; 1 mM acetaldehyde + 2 mM camphor): inhibited
inhibition of acetaldehyde-evoked current in trigeminal neurons [3]: inhibited

CCO [ethanol]
elevation of intracellular calcium levels in hTRPA1-expressing cells [4]: failed to elevate intracellular calcium levels

CC(=O)O [acetic acid]
elevation of intracellular calcium levels in hTRPA1-expressing cells [4]: failed to elevate intracellular calcium levels

COc1ccc2c(c[n+](C)c3c4cc5c(cc4ccc23)OCO5)c1OC [chelerythrine]
suppression of the PGE2-induced potentiation of acetaldehyde responses [1]: significantly suppressed

COc1ccc2c(c1)CC[C@@H]1[C@@H]2CC[C@]2(C)[C@@H](NCCCCCCN3C(=O)CCC3=O)CC[C@@H]12 [U73343]
suppression of the PGE2-induced potentiation of acetaldehyde responses [1]: did not suppress

SC-51089
suppression of the PGE2-induced potentiation of acetaldehyde responses [1]: significantly suppressed
